Experimental data from patent publication US12162892B2, “CD16a binding agents and uses thereof” (KLEO PHARMACEUTICALS, INC., priority 2018, dated 2024).
Where “and” joins values, the source holds several entries; their conditions need not be identical. Equal values may be shown once.

Tests used:
Assay type in all cases: binding
CD16a158F [1] = molecular target: T1, CD16a158F (Homo sapiens, UniProt P08637); assay: Biotinylated Ligand ELISA Assay; parameters: purchased Acro Biosystems CDA-H82E8; conditions: Biotinylated CD16a protein at 10 nM
Protocol: (§1) Coat ELISA plates (Costar 3922) using Neutravidin (Thermo 31000) at 5 μg/ml (100 μl/well) for 1 hour at 37° C. Plates were washed 4 times with PBST (PBS, 0.05% Tween 20-200 μl, 1 minute/wash) then blocked using 200 μl 5% bovine serum albumin (BSA, Heat Shock, Fraction V-American Bio AB01088-00100) in PBST for 2 hours at 25° C. with moderate shaking. BSA was removed and plates were washed. Biotinylated ligands diluted in PBSTB (PBST+0.1% BSA) were then added (100 μl/well) and incubated for 1 hour at 25° C. with gentle shaking. Ligands were removed and plates were washed. Any remaining unoccupied neutravidin binding sites were blocked by adding 100 μM Biotin (Fisher BP232-1) (100 μl/well) and incubated for 1 hour at 25° C. with gentle shaking. Plates were then washed. […] Protein was removed and plates were washed. Streptavidin-HRP (Invitrogen 434323) diluted 1:5000 in PBSTB was added (100 μl/well) and incubated for 1 hour at 25° C. with gentle shaking. Wash plates. Substrate (Super Signal ELISA Pico Chemiluminescent Substrate-Thermo 37069) was added (100 μl/well) and plates were incubated for 5 minutes at 25° C. with gentle shaking. Luminescence was then measured on the Biotek Synergy H1 microplate reader.

[2] = Biotin ELISA, No Protein (Example 55); conditions: three replicate values per compound
Protocol: as §1
(§2) Using similar methods as Examples 47 or 53, interactions with a number of receptors were measured. In some embodiments, “stock” is antibody only, and “control” is an antibody that went through the same procedure except using DMSO only as opposed to a compound. When contacted with targeting moieties such as antibodies in the Examples, compounds, e.g., I-95, I-96, etc. can react through their reactive groups

CD16a158V [3] = molecular target: T2, CD16a158V (Homo sapiens, UniProt P08637, F176V); assay: Biotinylated Ligand ELISA Assay; conditions: Biotinylated CD16a protein at 10 nM
Protocol: as §1

CD32a-R167 = assay: Biotin ELISA, interaction with various receptors (Example 55); conditions: three replicate values per compound
Protocol: as §1, §2

CD32b = molecular target: T3, CD32b (Homo sapiens, UniProt P31994); assay: as above; conditions: three replicate values per compound
T3 sequence (P31994 43-310): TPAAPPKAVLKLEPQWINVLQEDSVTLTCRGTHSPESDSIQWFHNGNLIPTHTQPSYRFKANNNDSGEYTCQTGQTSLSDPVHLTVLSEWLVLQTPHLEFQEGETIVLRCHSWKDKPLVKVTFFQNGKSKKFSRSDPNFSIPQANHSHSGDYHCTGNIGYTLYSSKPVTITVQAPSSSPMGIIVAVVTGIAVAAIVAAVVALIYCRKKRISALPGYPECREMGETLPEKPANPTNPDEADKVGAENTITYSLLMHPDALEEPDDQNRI
Protocol: as §1, §2

CD16a158V [4] = molecular target: T2, CD16a158V; assay: as above; conditions: three replicate values per compound
Protocol: as §1, §2

CD3ed = CD3ed (Homo sapiens, UniProt P04234+P07766); assay: as above; conditions: three replicate values per compound
Protocol: as §1, §2

CD16a158F [5] = molecular target: T1, CD16a158F; assay: as above; conditions: three replicate values per compound
Protocol: as §1, §2

CD32a H167 = molecular target: T4, CD32a H167 (Homo sapiens, UniProt P12318); assay: as above; conditions: three replicate values per compound
T4 sequence (P12318 36-218 limits assumed): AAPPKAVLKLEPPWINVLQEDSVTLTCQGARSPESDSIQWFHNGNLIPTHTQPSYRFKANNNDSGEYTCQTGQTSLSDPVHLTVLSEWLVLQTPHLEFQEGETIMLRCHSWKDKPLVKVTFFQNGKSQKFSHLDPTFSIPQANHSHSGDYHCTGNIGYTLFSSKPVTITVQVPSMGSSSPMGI
Protocol: as §1, §2

CD64 = CD64 (Homo sapiens, UniProt P12314); assay: as above; conditions: three replicate values per compound
Protocol: as §1, §2

T2 sequence (P08637 17-208 F176V): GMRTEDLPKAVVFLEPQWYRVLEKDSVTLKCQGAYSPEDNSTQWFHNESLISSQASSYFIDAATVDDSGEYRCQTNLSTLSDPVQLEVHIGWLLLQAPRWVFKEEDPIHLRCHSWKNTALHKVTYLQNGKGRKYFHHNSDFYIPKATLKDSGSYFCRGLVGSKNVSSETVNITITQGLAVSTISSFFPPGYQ
T1 sequence (P08637 17-208 limits assumed): as the sequence (P08637 17-208 F176V) above, with V160F counted along it
Sequence of CD64 (P12314 16-374): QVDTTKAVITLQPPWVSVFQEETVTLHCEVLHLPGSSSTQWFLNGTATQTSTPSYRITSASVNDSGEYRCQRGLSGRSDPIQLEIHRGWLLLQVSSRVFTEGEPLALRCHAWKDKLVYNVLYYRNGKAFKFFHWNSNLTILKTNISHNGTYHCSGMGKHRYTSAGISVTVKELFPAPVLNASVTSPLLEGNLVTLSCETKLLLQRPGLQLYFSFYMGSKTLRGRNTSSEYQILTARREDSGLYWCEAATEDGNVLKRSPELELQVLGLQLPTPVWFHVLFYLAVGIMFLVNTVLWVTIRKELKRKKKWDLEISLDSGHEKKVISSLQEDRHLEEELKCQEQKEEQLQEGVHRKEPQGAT
Sequence of CD3ed (P07766 23-126 limits assumed): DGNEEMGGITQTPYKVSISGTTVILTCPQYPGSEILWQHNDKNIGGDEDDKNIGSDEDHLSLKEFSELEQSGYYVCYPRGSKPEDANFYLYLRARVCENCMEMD
Sequence of CD3ed (P04234 22-105 limits assumed): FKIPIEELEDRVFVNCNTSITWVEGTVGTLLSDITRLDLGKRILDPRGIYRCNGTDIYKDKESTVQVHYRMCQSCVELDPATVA

Compound | Biotinylated Ligand ELISA-CD16a158F Binding (RLU) (CD16a158F [1]) | Biotin ELISA Results No Protein [2] | Biotinylated Ligand ELISA-CD16a158V Binding (RLU) (CD16a158V [3]) | Biotin ELISA Results CD32a-R167 (CD32a-R167) | Biotin ELISA Results CD32b (CD32b) | Biotin ELISA Results CD16a-158V (CD16a158V [4]) | Biotin ELISA Results CD3ed (CD3ed) | Biotin ELISA Results CD16a-158F (CD16a158F [5]) | Biotin ELISA Results CD32a-H167 (CD32a H167) | Biotin ELISA Results CD64 (CD64)
O=C(CCCC[C@@H]1SC[C@@H]2NC(=O)N[C@@H]21)NCCOCCOCCOCCOCCOCCOCCOCCOCCn1cc(-c2ccc(NC(=O)N3CCC(N4CCN(Cc5ccccc5)C4=O)CC3)cc2)nn1 [Compound I-15, N-{4-[1-(26-{5-[(3aS,4S,6aR)-2-oxo-hexahydro-1H-thieno[3,4-d]imidazol-4-yl]pentanamido}-3,6,9,12,15,18,21,24-octaoxahexacosan-1-yl)-1H-1,2,3-triazol-4-yl]phenyl}-4-(3-benzyl-2-oxoimidazolidin-1-yl)piperidine-1-carboxamide] | B (a relative luminescence value (RLU) of 10,000-100,000) | 3931 and 5958 and 23315* | B (a relative luminescence value (RLU) of 10,000-100,000) | 11818 and 37679* and 11737 | 10786 and 29882* and 8282 | 3136 and 3515 and 1518 | 7926 and 1921 and 46693* | 34842 and 7323* and 23569 | 5263 and 6063 and 4354 | 43288 and 127129* and 49818
O=C(CCCC[C@@H]1SC[C@@H]2NC(=O)N[C@@H]21)NCCOCCOCCOCCOCCOCCOCCOCCOCCn1cc(-c2ccc(OCC(=O)N3CCC(N4CC(=O)N(c5ccccc5)C4=O)CC3)cc2)nn1 [Compound I-19, 5-[(3aS,4S,6aR)-2-oxo-hexahydro-1H-thieno[3,4-d]imidazol-4-yl]-N-{26-[4-(4-{2-[4-(2,4-dioxo-3-phenylimidazolidin-1-yl)piperidin-1-yl]-2-oxoethoxy}phenyl)-1H-1,2,3-triazol-1-yl]-3,6,9,12,15,18,21,24-octaoxahexacosan-1-yl}pentanamide] | D (a relative luminescence value (RLU) of 1-1,000) | 1266 and 122 and 3990 | D (a relative luminescence value (RLU) of 1-1,000) | 2048 and −50 and 349 | 2072 and 737 and 1622 | −544 and −988 and −964 | 1852 and 1310 and 797 | −1097 and −1078 and −689 | 276 and 696 and −362 | 40706 and 42386 and 41814
